The test relates to mouse TNBS-induced Crohn's disease model. The test can be described thus: mouse TNBS-induced Crohn's disease model (pathological score, intestinal lesion score). Format: in vivo. As to conditions: for intestinal lesion score: scale 0-10, control group 8.1. The procedure:
Seven-week-old male BALB/c Cr Slc mice were purchased from Japan SLC, Inc. After 5 days of breeding for taming, the mice were divided into 5 groups so as to eliminate the difference between body weights, and subjected to an experiment.
The hair on 2 square-cm of the abdomen of the mouse was shaved, and 1% TNBS was applied to the skin. At 7 days after the application of TNBS, the mouse was fixed under anesthesia by halothane inhalation, and 100 μL of 2.0% TNBS was injected from the rectum to initiate intestinal lesions in Crohn's disease.
In the propagermanium-administered group, 0.015% of the propagermanium was mixed with a standard feedstuff for mice CRF-1 (manufactured by Oriental Yeast Co., Ltd.) and administered by ad libitum feeding from immediately after the injection of TNBS to 3 days after the initiation. The average dose during the period of the administration of the propagermanium was calculated to be about 7.5 mg/kg/day as a dose of the propagermanium per day, from the body weight and food consumption.
In the prednisolone-administered group as a positive control, prednisolone was administered once a day as 10 mL/kg of 0.5% CMC suspension using an oral canula for mice from immediately after the injection of TNBS to 3 days after the initiation. The dose was set to be 1 mg/kg/day that is the maximum amount of a clinical general dose (30 to 40 mg/day/person).
In the salazosulfapyridine-administered group as a positive control, salazosulfapyridine was administered twice a day for 3 days as 10 mL/kg of 0.5% CMC suspension using an oral canula for mice from immediately after the injection of TNBS to 3 days after the initiation. Two dose groups: a low dose group (133 mg/kg/day) that is the maximum amount in view of a clinical general dose and a high dose group (400 mg/kg/day) that is effective in rat TNBS models, were set.
At 1, 2 and 3 days after the TNBS initiation, the pathological score (the total of the scores of weight-loss, diarrhea/loose stool and occult blood/hemorrhage) was evaluated according to the following criteria.
(A) Weight-loss score (when the body weight before the TNBS initiation is considered to be 100%) • 0: No decrease • 1: Decreased by within 5% • 2: Decreased by 5-10% • 3: Decreased by 10-20% • 4: Decreased by more than 20%
(B) Diarrhea/loose stool score • 0: Normal. A solid form is maintained. • 2: Semi-solid loose stool. Wet, and readily collapses when being touched. • 4: Diarrhea, with flowability.
(C) Occult blood/hemorrhage score • 0: Normal. No blood is incorporated in stool. • 2: Occult blood. Blood is incorporated in stool. Perianal is slightly dirty. • 4: Bloody stool. Blood is incorporated in stool. Perianal is dirty with blood.
At 3 days after the TNBS initiation, Evans Blue was administered intravenously. At 30 minutes after the administration, the mouse was sacrificed by cervical dislocation, from the colon to the anus were excised and the inner cavity was washed with physiological saline, the lumen was opened, and the degree of the lesions was scored. The intestinal lesion score was evaluated by observing the colon by using a stereomicroscope according to the following criteria. • 0: No damage. • 1: Hyperemia • 2: Hyperemia and thickening of gut walls. No ulcer. • 3: Ulcer is present, but is not thickened. • 4: Plural lesion sites are present. • 5: Widespread lesion sites (1 cm or more in total) • 6: Widespread lesion sites (1.5 cm or more in total) • 7: Widespread lesion sites (2 cm or more in total) • 8: Widespread lesion sites (2.5 cm or more in total) • 9: Widespread lesion sites (3 cm or more in total) • 10: Widespread lesion sites (3.5 cm or more in total)

Experimental findings from US20120244102A1, “AGENT FOR PREVENTING OR TREATING CROHN'S DISEASE, COMPRISING ORGANIC ACID POLYMER” (SANWA KAGAKU KENKYUSHO CO., LTD., priority 2010, published 2012) are described below.

For the compound “3-oxygermylpropionic acid polymer [propagermanium]”, the “pathological score (total of weight-loss, diarrhea/loose stool and occult blood/hemorrhage scores)” value is “significant effect of improving the pathological score was confirmed” (7.5 mg/kg propagermanium mixed in feed, 2 days after the TNBS initiation) and “significant effect of improving the pathological score was confirmed” (7.5 mg/kg propagermanium mixed in feed, 3 days after the TNBS initiation).

On to `C[C@]12C=CC(=O)C=C1CC[C@@H]1[C@@H]2[C@@H](O)C[C@@]2(C)[C@H]1CC[C@]2(O)C(=O)CO` [prednisolone], for which the “pathological score (total of weight-loss, diarrhea/loose stool and occult blood/hemorrhage scores)” value by setting is: (1 mg/kg prednisolone oral, 2 days after the initiation) “effect was not observed”; (1 mg/kg prednisolone oral, 3 days after the initiation) “effect was observed”. The intestinal lesion score (prednisolone 1 mg/kg oral, 3 days after the TNBS initiation) was determined as 5.2.

On to `O=C(O)c1cc(/N=N/c2ccc(S(=O)(=O)Nc3ccccn3)cc2)ccc1O` [salazosulfapyridine], for which the “pathological score (total of weight-loss, diarrhea/loose stool and occult blood/hemorrhage scores)” value is, setting by setting: (133 mg/kg salazosulfapyridine oral (low dose group)) “significant improving effect was not observed”; (400 mg/kg salazosulfapyridine oral (high dose group), 2 days after the initiation) “improving effect was found”; (400 mg/kg salazosulfapyridine oral (high dose group), 3 days after the initiation) “improving effect was found”. The compound further returned an intestinal lesion score (salazosulfapyridine 133 mg/kg oral, 3 days after the TNBS initiation) of 6.1 and an intestinal lesion score (salazosulfapyridine 400 mg/kg oral, 3 days after the TNBS initiation) of 6.8.
